In PMC4138103 (PLoS ONE, 2014):
Read-outs that look alike come from different tables or passages of the source.

Tests used:
Assay type in all cases: in vivo, Rattus norvegicus
[1] = system: Dopamine receptors D1 and D5; assay: Brain [3H]SCH23390 binding in exposed rats; conditions: males
Protocol: (§1) The membrane containing pellet was homogenized in 15 volumes of 50 mM Tris-HCl buffer at pH 7.4, incubated at 25°C for 30 min, and centrifuged again at 100 000 g. The pellet from the second centrifugation was dissolved in 4 ml 0.32 M sucrose/g brain (v/w), with a final protein concentration of […] and frozen at −40°C.
Dopamine receptors D1 and D5 were analyzed as described before, [39]. In brief, 50 µl (0.7 mg protein) of the membrane preparation was incubated with 124–132 µl buffer (50 mM tris-HCL, 120 mM NaCl, 5 mM KCl, 2,5 mM CaCl2 and 1 mM MgCl2, pH 7.4) and 100 nM ketanserine (Tocris Bioscience, Bristol, UK; to block binding of SCH23390 to the 5-HT receptor) to a final volume of 200 µl. For measuring unspecific binding […] SCH23390 was added to the same mixture. Finally, 1 nM [^3H]SCH23390 was added to all samples to measure binding of the receptors or unspecific binding. The samples were incubated for 30 min at 25°C followed by vacuum filtration and scintillation counting.
Samples were vacuum filtrated trough Whatman glassfiber-filters (type GF/B, 25 mm) and washed 3×3 ml ice-cold incubation buffer. To reduce unspecific binding, the filters where pre-wetted in 1% polyetylenimine for 60 min. […] Radioactive binding was measured as disintegration per minute (DPM1) in a scintillation counter (Tri-Carb 3100TR, Perkin Elmer). […]

[2] = system: Nicotinic receptor subunits α4 and β2; assay: Brain [3H]epibatidin binding in exposed rats; conditions: males
Protocol: as §1
Nicotinic receptor subunits α4 and β2 were analyzed as above with the following modifications: 8 µl (0.1 mg protein) of the same membrane preparation was incubated with 415–472 µl buffer (50 mM tris-HCL, pH 7.4), 0.1–1 nM [^3H]epibatidin and 0.1 mM (-)nicotine for measuring unspecific binding, to a final volume of 500 µl. […] The samples were incubated with [^3H]epibatidin for 1 h followed by vacuum filtration and scintillation counting.
Samples were vacuum filtrated trough Whatman glassfiber-filters (type GF/B, 25 mm) and washed 3×3 ml ice-cold incubation buffer. To reduce unspecific binding, the filters where pre-wetted in 1% polyetylenimine for 60 min. The filters were placed into a filtration bucket and coupled to a mechanical vacuum pump. After filtration the bucket was disassembled and the filters transferred into plastic tubes and 4 ml filtercount fluid was added. Radioactive binding was measured as disintegration per minute (DPM1) in a scintillation counter (Tri-Carb 3100TR, Perkin Elmer). The analyses were carried out in duplicates

Sprague-Dawley rats = assay: Open field test for locomotor activity; conditions: for Emax: Rattus norvegicus; for Habituation, distance, CED / Habituation, distance, CED-L / Habituation, time, CED / Habituation, time, CED-L / Percent distance in inner zone, day 24, CED / Percent distance in inner zone, day 24, CED-L / Percent time in inner zone, day 24, CED / Percent time in inner zone, day 24, CED-L: total dose based
Protocol: During the last 5 days of the study (days 24–28), rats were tested for locomotor activity in an octagonal open field (diameter 75 cm). The behavior was recorded on videotapes and automatically evaluated with a program for behavioral analyses (Ethovision, Noldus, NL). Each rat was tested for 5 min on each of the 5 days to allow the examination of habituation. Sequence of the rats to be tested was varied according to a permutation scheme to exclude a systematic influence of daytime on the outcome. For analyses, the area of the open field was divided in an inner zone (diameter 50 cm) and an outer ring (width 12.5 cm). Total distance moved during the recording period, distance moved in the inner zone of the open field, distance moved in outer zone, time in inner zone, and time in outer zone were extracted as parameters from the recordings.
Data were also analyzed using the BMD method, which is based on dose-response modeling of the full data set using a nested family of exponential and Hill models. The analyses were done on data of males and females combined, using sex as a covariate. […] In that case, different Critical Effect Doses (CEDs) and CEDs at the lowest bound of the confidence interval (CED-L) were generated for each sex. If no difference between sexes is detected, a CED and CED-Ls for the combined data is generated. However, this was also done if the curve fits are close, and separate analyses for males and females were then performed manually. CEDs and CED-Ls were calculated at the predefined Critical Effect Size (CES) of 5% (EFSA standard) or 10%.

[3] = total dose 1000 mg/kg bw, group mean
[4] = F, CES 5%, model E2, adipose tissue concentration based
[5] = F, CES 5%, model E4, adipose tissue concentration based
[6] = F, CES 10%, model E2, adipose tissue concentration based
[7] = F, CES 10%, model E4, adipose tissue concentration based
[8] = females, CES 5%, adipose tissue concentration based
[9] = females, adipose tissue concentration based

Compound: Clc1cc(Cl)c(-c2cc(Cl)c(Cl)c(Cl)c2Cl)cc1Cl [PCB 180, 2,2′,3′,4,4′,5,5′-heptachlorobiphenyl]
- Specific [3H]SCH23390 binding to D1/D5 dopamine receptors in cerebrum vs controls ([1]; 1000 mg/kg bw): No significant differences
- Dopamine D1/D5 receptor binding [1, 3]: 1075 DPM1
- Specific binding of [3H]epibatidin to high or low affinity sites of nicotinic receptor subunit α4/β2 vs controls ([2]; 1000 mg/kg bw): no significant difference
- High affinity nicotinic receptor binding (α4/β2) [2, 3]: 656 DPM1
- Low affinity nicotinic receptor binding (α4/β2) [2, 3]: 1492 DPM1
- CED, Habituation, distance (Sprague-Dawley rats; [4]): 1340 µg/g lipid
- CED, Habituation, time (Sprague-Dawley rats; [4]): 1130 µg/g lipid
- CED-L, Habituation, distance (Sprague-Dawley rats; [4]): 865 µg/g lipid
- CED-L, Habituation, time (Sprague-Dawley rats; [4]): 739 µg/g lipid
- CED, Percent distance in inner zone, day 24 (Sprague-Dawley rats; [5]): 4.12 µg/g lipid
- CED, Percent time in inner zone, day 24 (Sprague-Dawley rats; [5]): 1.55 µg/g lipid
- CED-L, Percent distance in inner zone, day 24 (Sprague-Dawley rats; [5]): 1.16 µg/g lipid
- CED-L, Percent time in inner zone, day 24 (Sprague-Dawley rats; [5]): 0.525 µg/g lipid
- CED, Habituation, distance (Sprague-Dawley rats; [6]): 2740 µg/g lipid
- CED, Habituation, time (Sprague-Dawley rats; [6]): 2320 µg/g lipid
- CED-L, Habituation, distance (Sprague-Dawley rats; [6]): 1777 µg/g lipid
- CED-L, Habituation, time (Sprague-Dawley rats; [6]): 1518 µg/g lipid
- CED, Percent distance in inner zone, day 24 (Sprague-Dawley rats; [7]): 8.69 µg/g lipid
- CED, Percent time in inner zone, day 24 (Sprague-Dawley rats; [7]): 3.17 µg/g lipid
- CED-L, Percent distance in inner zone, day 24 (Sprague-Dawley rats; [7]): 2.423 µg/g lipid
- CED-L, Percent time in inner zone, day 24 (Sprague-Dawley rats; [7]): 1.07 µg/g lipid
- Emax (Sprague-Dawley rats; 576 h, F, model E4, controls vs high dose according to the fitted model, read-out: Maximum response, Percent distance in inner zone, day 24): 53%
- Emax (Sprague-Dawley rats; 576 h, F, model E4, controls vs high dose according to the fitted model, read-out: Maximum response, Percent time in inner zone, day 24): 111%
- Emax (Sprague-Dawley rats; 576 h, females, controls vs high dose, fitted model, read-out: Percent distance in inner zone, day 24, Maximum response): 53%
- Emax (Sprague-Dawley rats; 576 h, females, controls vs high dose, fitted model, read-out: Percent time in inner zone, day 24, Maximum response): 107%
- Emax (Sprague-Dawley rats; F, model E2, controls vs high dose according to the fitted model, read-out: Maximum response, Habituation, distance): -35.2%
- Emax (Sprague-Dawley rats; F, model E2, controls vs high dose according to the fitted model, read-out: Maximum response, Habituation, time): -40.1%
- Emax (Sprague-Dawley rats; females, controls vs high dose, fitted model, read-out: Habituation, distance, Maximum response): -33.2%
- Emax (Sprague-Dawley rats; females, controls vs high dose, fitted model, read-out: Habituation, time, Maximum response): -37.7%
- Percentage of distance moved in inner zone, day 24, CED (Sprague-Dawley rats; [8]): 4.12 µg/g lipid
- Percentage of time in inner zone, day 24, CED (Sprague-Dawley rats; [8]): 1.55 µg/g lipid
- Habituation, distance, CED (Sprague-Dawley rats; females, CES 5%): 216 mg/kg bw
- Habituation, distance, CED-L (Sprague-Dawley rats; females, CES 5%): 138 mg/kg bw
- Habituation, time, CED (Sprague-Dawley rats; females, CES 5%): 184 mg/kg bw
- Habituation, time, CED-L (Sprague-Dawley rats; females, CES 5%): 118 mg/kg bw
- Percent distance in inner zone, day 24, CED (Sprague-Dawley rats; females, CES 5%): 0.87 mg/kg bw
- Percent distance in inner zone, day 24, CED-L (Sprague-Dawley rats; females, CES 5%): 0.25 mg/kg bw
- Percent time in inner zone, day 24, CED (Sprague-Dawley rats; females, CES 5%): 0.35 mg/kg bw
- Percent time in inner zone, day 24, CED-L (Sprague-Dawley rats; females, CES 5%): 0.11 mg/kg bw
- Habituation, distance, CED (Sprague-Dawley rats; females, CES 10%): 444 mg/kg bw
- Habituation, distance, CED-L (Sprague-Dawley rats; females, CES 10%): 283 mg/kg bw
- Habituation, time, CED (Sprague-Dawley rats; females, CES 10%): 378 mg/kg bw
- Habituation, time, CED-L (Sprague-Dawley rats; females, CES 10%): 243 mg/kg bw
- Percent distance in inner zone, day 24, CED (Sprague-Dawley rats; females, CES 10%): 1.84 mg/kg bw
- Percent distance in inner zone, day 24, CED-L (Sprague-Dawley rats; females, CES 10%): 0.53 mg/kg bw
- Percent time in inner zone, day 24, CED (Sprague-Dawley rats; females, CES 10%): 0.71 mg/kg bw
- Percent time in inner zone, day 24, CED-L (Sprague-Dawley rats; females, CES 10%): 0.23 mg/kg bw
- Habituation, percentage of distance moved, CED (Sprague-Dawley rats; [9]): 1340 µg/g lipid
- Habituation, time in inner zone, CED (Sprague-Dawley rats; [9]): 1130 µg/g lipid
- Spontanous locomotor activity, CED-L (Sprague-Dawley rats; [9]): 525 ng/g lipid
- Altered open field behavior, CED-L (Sprague-Dawley rats; females, critical effect for risk characterization): 0.525 µg/g lipid
- Open field behavior, dose-response relations (Sprague-Dawley rats; males): No significant dose-response relations
